Test results from US6815214B2, “Pharmaceutical uses and synthesis of diketopiperazines” (Celltech R & D, Inc., priority 2000, dated 2004).
Read-outs that look alike come from different tables or passages of the source.

What was measured:
[1] = target: T1, CXCR2 (Homo sapiens, UniProt P25025); test: CXCR2 radioligand binding assay with 125I labeled IL-8 (Panlabs); details: for inhibition at 20 µM: letter following "II", read-out: Biological Activity II (CXCR2): extent of inhibition; for IC50: read-out: IC50 (after II, CXCR2)
T1 construct: host or cells: CHO cells
T1 sequence (P25025 1-360): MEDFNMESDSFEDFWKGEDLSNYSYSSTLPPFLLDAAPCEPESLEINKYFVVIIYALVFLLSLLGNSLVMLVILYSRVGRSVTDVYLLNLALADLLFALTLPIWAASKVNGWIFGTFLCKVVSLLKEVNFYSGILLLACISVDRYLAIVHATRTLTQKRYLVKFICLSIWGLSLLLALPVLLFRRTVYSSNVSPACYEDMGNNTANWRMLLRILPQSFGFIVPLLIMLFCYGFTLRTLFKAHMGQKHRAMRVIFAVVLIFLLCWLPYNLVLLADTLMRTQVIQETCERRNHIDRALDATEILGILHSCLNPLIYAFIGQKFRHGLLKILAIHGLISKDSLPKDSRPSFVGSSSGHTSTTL
From the text: This assay is a radioligand binding assay in human recombinant CHO cells with ^125I labeled IL-8 as ligand as described in The Journal of Biological Chemistry (Ahuja, S. K.; Murphy, P. M;. J. Biol. Chem. 1996, 271, 20545).

[2] = system: A549 cells; test: Inhibition of TNF-α-induced apoptosis in A549 cells (crystal violet); assay type: cell-based; details: letter following "III"; inhibition at 20 μM
Procedure: The protocol used for determining inhibition of apoptosis in A549 cells was adopted from a system previously described (K. Last-Barney et al, J. of Immunology, 1988, 141, 527-530). Briefly, 10^5 cells in 200 μL 10% FBS/RPMI antibiotic containing culture medium were plated into 96 well round bottom culture plates and allowed to adhere for 6 hours at 37° C. in a 5% CO2 atmosphere. The media was removed and 100 μL of RPMI+1 μg/mL actinomycin-D was added to each well, followed by 100 μL of 20 μM solution of compound in 1% DMSO. This was incubated for 1 hour. […] The media was aspirated from the plates and 100 μL of 0.5% crystal violet in 20% methanol was added. After 10 minutes the plates were rinsed with water to remove excess stain, air dried, and read on a Spectramax spectrophotometer at a wavelength of 590 nm.

inhibition at 20 µM [1] | IC50 ([1]; unit μm [sic]) | IC50 [1] | SMILES | Biological Activity III (apoptosis): extent of inhibition [2]
> 50% | 15 µM |  | COc1cc(OC)c(CNC(=O)Cc2ccc(CN3C(=O)[C@@H]4C[C@H](NC(=O)OCC5c6ccccc6-c6ccccc65)CN4C(=O)[C@@H]3CC(=O)O)cc2)c(OC)c1 | 
> 50% |  | 25 µM | COC(=O)C[C@H]1C(=O)N2C[C@@H](NC(=O)c3cnc4ccccc4c3)C[C@H]2C(=O)N1Cc1ccc(CC(=O)NCc2c(OC)cc(OC)cc2OC)cc1 | A (A refers to >50% inhibition at 20 μM)
